Measured values: article PMC10620772, “Design, synthesis, and biological evaluation of new pyrimidine-5-carbonitrile derivatives as novel anti-cancer, dual EGFR^WT/COX-2 inhibitors with docking studies” (RSC Advances, 2023)

Key:
Assay in all cases: NCI60 antitumor screening
Type in all cases: cell-based, human
[1] = tested on: HT29
[2] = tested on: NCI-H226; conditions: for GI%: 10 μM one-dose
[3] = tested on: CCRF-CEM
[4] = tested on: HCT-116
[5] = tested on: PC-3
[6] = tested on: CAKI-1
[7] = tested on: NCI-H522
[8] = tested on: TK-10
[9] = tested on: UACC-62
[10] = tested on: HOP-62; conditions: for GI%: 10 μM one-dose
[11] = tested on: NCI-H322M
[12] = tested on: SN12C
[13] = tested on: UACC-257
[14] = tested on: OVCAR-3
[15] = tested on: 786–0; conditions: for GI%: 10 μM one-dose
[16] = tested on: HOP-92
[17] = tested on: SK-MEL-5
[18] = tested on: MALME-3M
[19] = tested on: HL-60(TB)
[20] = tested on: LOX IMVI
[21] = tested on: RPMI-8226
[22] = tested on: K-562; conditions: for GI%: 10 μM one-dose
[23] = tested on: A549/ATCC
[24] = tested on: SW-620
[25] = tested on: OVCAR-8
[26] = tested on: IGROV1
[27] = tested on: NCI-H23
[28] = tested on: A498
[29] = tested on: RXF 393; conditions: for GI%: 10 μM one-dose
[30] = tested on: DU-145
[31] = tested on: UO-31
[32] = tested on: M14
[33] = tested on: SF-539; conditions: for GI%: 10 μM one-dose
[34] = tested on: T-47D
[35] = tested on: MDA-MB-435
[36] = tested on: MDA-MB-468
[37] = tested on: SK-MEL-28
[38] = tested on: HCT-15

Cc1ccc(CSc2nc(-c3ccc(F)cc3)c(C#N)c(N3CCOCC3)n2)cc1 [4d, 4-(4-Fluorophenyl)-2-((4-methylbenzyl)thio)-6-morpholinopyrimidine-5-carbonitrile]
GI% ([1]; 10 μM one-dose): — (GI% < 10)
GI% [2]: 21.35%
GI% ([2]; Table 1): — (GI value > 70%)
GI% ([3]; 10 μM one-dose): — (GI% < 10)
GI% ([4]; 10 μM one-dose): 19.81%
GI% ([5]; 10 μM one-dose): — (GI% < 10)
GI% ([6]; 10 μM one-dose): 44.00%
GI% ([7]; 10 μM one-dose): 44.57%
GI% ([8]; 10 μM one-dose): — (GI% < 10)
GI% ([9]; 10 μM one-dose): 22.83%
GI% [10]: 36.77%
GI% ([10]; Table 1): — (GI value > 70%)
GI% ([11]; 10 μM one-dose): — (GI% < 10)
GI% ([12]; 10 μM one-dose): — (GI% < 10)
GI% ([13]; 10 μM one-dose): 17.42%
GI% ([14]; 10 μM one-dose): — (GI% < 10)
GI% [15]: 55.92%
GI% ([15]; Table 1): — (GI value > 70%)
GI% ([16]; 10 μM one-dose): 34.62%
GI% ([17]; 10 μM one-dose): 10.99%
GI% ([18]; 10 μM one-dose): 26.17%
GI% ([19]; 10 μM one-dose): — (GI% < 10)
GI% ([20]; 10 μM one-dose): 11.10%
GI% ([21]; 10 μM one-dose): — (GI% < 10)
GI% [22]: 10.67%
GI% ([22]; Table 1): — (GI value > 70%)
GI% ([23]; 10 μM one-dose): 24.90%
GI% ([24]; 10 μM one-dose): — (GI% < 10)
GI% ([25]; 10 μM one-dose): 23.86%
GI% ([26]; 10 μM one-dose): — (GI% < 10)
GI% ([27]; 10 μM one-dose): — (GI% < 10)
GI% ([28]; 10 μM one-dose): — (GI% < 10)
GI% [29]: 48.96%
GI% ([29]; Table 1): — (GI value > 70%)
GI% ([30]; 10 μM one-dose): — (GI% < 10)
GI% ([31]; 10 μM one-dose): 10.06%
GI% ([32]; 10 μM one-dose): — (GI% < 10)
GI% [33]: 32.27%
GI% ([33]; Table 1): — (GI value > 70%)
GI% ([34]; 10 μM one-dose): 12.46%
GI% ([35]; 10 μM one-dose): — (GI% < 10)
GI% ([36]; 10 μM one-dose): — (GI% < 10)
GI% ([37]; 10 μM one-dose): — (GI% < 10)
GI% ([38]; 10 μM one-dose): — (GI% < 10)

CN1CCN(c2nc(SCc3ccc([N+](=O)[O-])cc3)nc(-c3ccc(F)cc3)c2C#N)CC1 [4k, 4-(4-Fluorophenyl)-6-(4-methylpiperazin-1-yl)-2-((4-nitrobenzyl)thio)pyrimidine-5-carbonitrile]
inhibition at 10 µM ([1]; Homo sapiens, HT-29, 10 μM single dose, HT29 (colon cancer), read-out: growth inhibition percent (GI%)): < 10%
inhibition at 10 µM ([2]; Homo sapiens, 10 μM single dose, NCI-H226 (non-small cell lung cancer), read-out: growth inhibition percent (GI%)): < 10%
inhibition at 10 µM ([3]; Homo sapiens, 10 μM single dose, CCRF-CEM (leukaemia), read-out: growth inhibition percent (GI%)): 17.5%
inhibition at 10 µM ([4]; Homo sapiens, 10 μM single dose, HCT-116 (colon cancer), read-out: growth inhibition percent (GI%)): 18.4%
inhibition at 10 µM ([5]; Homo sapiens, 10 μM single dose, PC-3 (prostate cancer), read-out: growth inhibition percent (GI%)): 25.9%
inhibition at 10 µM ([6]; Homo sapiens, 10 μM single dose, CAKI-1 (renal cancer), read-out: growth inhibition percent (GI%)): 34.8%
inhibition at 10 µM ([7]; Homo sapiens, 10 μM single dose, NCI-H522 (non-small cell lung cancer), read-out: growth inhibition percent (GI%)): 21.3%
inhibition at 10 µM ([8]; Homo sapiens, 10 μM single dose, TK-10 (renal cancer), read-out: growth inhibition percent (GI%)): < 10%
inhibition at 10 µM ([9]; Homo sapiens, 10 μM single dose, UACC-62 (melanoma), read-out: growth inhibition percent (GI%)): 19.8%
inhibition at 10 µM ([10]; Homo sapiens, 10 μM single dose, HOP-62 (non-small cell lung cancer), read-out: growth inhibition percent (GI%)): 26.3%
inhibition at 10 µM ([11]; Homo sapiens, 10 μM single dose, NCI-H322M (non-small cell lung cancer), read-out: growth inhibition percent (GI%)): 26.3%
inhibition at 10 µM ([12]; Homo sapiens, 10 μM single dose, SN12C (renal cancer), read-out: growth inhibition percent (GI%)): 15.8%
inhibition at 10 µM ([13]; Homo sapiens, 10 μM single dose, UACC-257 (melanoma), read-out: growth inhibition percent (GI%)): < 10%
inhibition at 10 µM ([14]; Homo sapiens, 10 μM single dose, OVCAR-3 (ovarian cancer), read-out: growth inhibition percent (GI%)): < 10%
inhibition at 10 µM ([15]; Homo sapiens, 10 μM single dose, 786–0 (renal cancer), read-out: growth inhibition percent (GI%)): 26.4%
inhibition at 10 µM ([16]; Homo sapiens, 10 μM single dose, HOP-92 (non-small cell lung cancer), read-out: growth inhibition percent (GI%)): 47%
inhibition at 10 µM ([17]; Homo sapiens, 10 μM single dose, SK-MEL-5 (melanoma), read-out: growth inhibition percent (GI%)): 16.4%
inhibition at 10 µM ([18]; Homo sapiens, 10 μM single dose, MALME-3M (melanoma), read-out: growth inhibition percent (GI%)): 27.2%
inhibition at 10 µM ([19]; Homo sapiens, 10 μM single dose, HL-60(TB) (leukaemia), read-out: growth inhibition percent (GI%)): < 10%
inhibition at 10 µM ([20]; Homo sapiens, 10 μM single dose, LOX IMVI (melanoma), read-out: growth inhibition percent (GI%)): 20.9%
inhibition at 10 µM ([21]; Homo sapiens, 10 μM single dose, RPMI-8226 (leukaemia), read-out: growth inhibition percent (GI%)): 17.8%
inhibition at 10 µM ([22]; Homo sapiens, 10 μM single dose, (leukaemia), read-out: growth inhibition percent (GI%)): 23.3%
inhibition at 10 µM ([23]; Homo sapiens, 10 μM single dose, A549/ATCC (non-small cell lung cancer), read-out: growth inhibition percent (GI%)): 18.7%
inhibition at 10 µM ([24]; Homo sapiens, 10 μM single dose, SW-620 (colon cancer), read-out: growth inhibition percent (GI%)): < 10%
inhibition at 10 µM ([25]; Homo sapiens, 10 μM single dose, OVCAR-8 (ovarian cancer), read-out: growth inhibition percent (GI%)): 11.7%
inhibition at 10 µM ([26]; Homo sapiens, IGROV-1, 10 μM single dose, IGROV1 (ovarian cancer), read-out: growth inhibition percent (GI%)): < 10%
inhibition at 10 µM ([27]; Homo sapiens, 10 μM single dose, NCI-H23 (non-small cell lung cancer), read-out: growth inhibition percent (GI%)): 19.7%
inhibition at 10 µM ([28]; Homo sapiens, 10 μM single dose, A498 (renal cancer), read-out: growth inhibition percent (GI%)): < 10%
inhibition at 10 µM ([29]; Homo sapiens, 10 μM single dose, RXF 393 (renal cancer), read-out: growth inhibition percent (GI%)): 68.5%
inhibition at 10 µM ([30]; Homo sapiens, DU-145, read-out: growth inhibition percent (GI%)): < 10%
inhibition at 10 µM ([31]; Homo sapiens, 10 μM single dose, UO-31 (renal cancer), read-out: growth inhibition percent (GI%)): 40%
inhibition at 10 µM ([32]; Homo sapiens, 10 μM single dose, M14 (melanoma), read-out: growth inhibition percent (GI%)): < 10%
inhibition at 10 µM ([33]; Homo sapiens, 10 μM single dose, SF-539 (CNS cancer), read-out: growth inhibition percent (GI%)): 41%
inhibition at 10 µM ([34]; Homo sapiens, T47D, 10 μM single dose, T-47D (breast cancer), read-out: growth inhibition percent (GI%)): 28.6%
inhibition at 10 µM ([35]; Homo sapiens, 10 μM single dose, MDA-MB-435 (melanoma), read-out: growth inhibition percent (GI%)): < 10%
inhibition at 10 µM ([36]; Homo sapiens, 10 μM single dose, MDA-MB-468 (breast cancer), read-out: growth inhibition percent (GI%)): 12.4%
inhibition at 10 µM ([37]; Homo sapiens, 10 μM single dose, SK-MEL-28 (melanoma), read-out: growth inhibition percent (GI%)): 14.4%
inhibition at 10 µM ([38]; Homo sapiens, 10 μM single dose, HCT-15 (colon cancer), read-out: growth inhibition percent (GI%)): 15.7%
